The record followed here is patent US11419843B2, “Small molecule BCL-2 functional converters as cancer therapeutics” (Oregon State University, priority 2016, dated 2022).

Holding throughout (assay type): cell-based, human
Experiment [1] concerns H460 parental and resistant cells. Briefly: Colony formation (2D clonogenic, 3D soft agar) of H460 parental and resistant cells. The settings on record: treated continuously for 14 days. The source says:
Colony forming ability (%) relative to vehicle treatment. Representative of three independent conducted assays in triplicate.

The test system of experiment [2] is MDA-MB-468 parental and derived paclitaxel or doxorubicin resistant cells. The experiment is described as follows: Viability of MDA-MB-468 parental and derived resistant cells. How it is done: Percentage viability relative to vehicle treatment. Representative of three independent assays in triplicate.
Percentage viability relative to vehicle treatment.
Percentage viability relative to vehicle treatment. Representative of three independent assays conducted in triplicate.
Cells of interest were plated at 2000 cells per well in 96-well black tissue culture plate and allowed to adhere to the plate overnight. Viability assays were performed using 10% serum medium unless otherwise stated. Drugs were diluted in supplemented tissue culture medium and added at increasing concentrations, with DMSO as a vehicle control. Cells were then incubated for either 48 hour or 72 hours in presence of the compound, Promega Titer Glo was added to the wells at the assay end point according to manufacturer's protocol. Luminescence was measured using Tropix TR717 Microplate luminometer. Percentage of viable cells is relative to vehicle (100%). As a complementary viability assay, eBioscience Fixable Viability Dye eFluor 660(65-0864) was used to stain dead cells and analyzed using flow cytometry.

The subject of experiment [3] is MDA-MB-468 parental and paclitaxel resistant cells. The experiment is described as follows: Clonogenic survival of MDA-MB-468 parental and resistant cells. Conditions: treated continuously for 14 days. An excerpt: FIG. 29B is the results of clonogenic survival assays in MDA-MB-468 parental and resistant cells treated continuously for 14 days with vehicle, or indicated concentration of paclitaxel. Colony forming ability (%) relative to vehicle treatment. Representative of three independent assays conducted in triplicate.

For the compound `CCOc1ccccc1NC(=O)c1cc(Cl)ccc1NC(=O)c1ccc(OC)cc1` [BFC1108, 5-chloro-N-(2-ethoxyphenyl)-2-[(4-methoxybenzoyl)amino]-benzamide], the “Colony formation ability of H460 resistant vs parental line” value in experiment [1] is “reduced colony formation ability of resistant line preferentially”. Further, in experiment [2] (72 hour treatment), the “Viability of MDA-MB-468 doxorubicin resistant cells” value is given as “reduced viability of doxorubicin resistant cells”. Also, the “Viability of MDA-MB-468 paclitaxel resistant vs parental cells” value in experiment [2] (72 hours) is given as “preferentially killed by BFC1108 in a dose dependent manner”. The “Colony forming ability of MDA-MB-468 paclitaxel resistant cells” value in experiment [3] is on record as “reduced colony forming ability of the paclitaxel resistant cells”.
